The results in this text go back to US20060165743A1, “Method and device to control and condition the behavior of the varroa destructor mite in a beehive, or in other environment where bees reproduce” (Universita' Degli Studi Di Udine, priority 2002, published 2006).

Assay [1] has as its system Varroa destructor mite. In words: Activity test in artificial observation plates (treated wells vs solvent control wells, each with a bee larva). It is filed as in vivo. The conditions noted are these: for AVERAGE ACTIVITY TREATED: 6 observations in 30 min, 34° C., 75% RH, dark. The method, then:
The activity of (±)-2-hydroxyhexanoic acid and of (±)-3-hydroxyhexanoic acid, dissolved in water, was tested in a plate 10 (FIG. 1). Each plate 10 consists of a parallelepiped of sodium-calcium glass with a 70×70 mm square base, and a height of 12 mm, in which four cylindrical wells 12a, 12b, are made, each with a diameter of 7 mm and a depth of 10 mm, similar in size to bee cells. The wells 12a, 12b are equidistant from the center. At the center of the plate 10 a Varroa destructor mite was placed, indicated by the number 11. To delimit the space in which the mite 11 could move, the plates 10 were closed with a cover element 15 consisting of a glass disk joined to a stainless steel spacer ring 17. Two opposite wells 12a of each plate 10 were treated with (±)-2-hydroxyhexanoic acid or with (±)-3-hydroxyhexanoic acid, dissolved in water; the other two wells 12b, on the contrary, were used as controls and were treated only with the solvent. In each individual well 12a, 12b of the plate 10 a bee larva 20 was then placed. The biological activity test on (±)-2-hydroxyhexanoic acid provides a first test during which 1 ng of (±)-2-hydroxyhexanoic acid is tested, a second test during which 10 ng of (±)-2-hydroxyhexanoic acid are tested and a third test during which 100 ng are tested and a fourth test during which 1000 ng are tested. The biological activity test on (±)-3-hydroxyhexanoic acid provides a first test during which 10 ng of (±)-3-hydroxyhexanoic acid are tested, a second test during which 100 ng of (±)-3-hydroxyhexanoic acid are tested, and a third test during which 1000 ng are tested. At the beginning of each test the Varroa destructor mite 11, in this case a female adult, is located at the center of each plate 10 with a thin brush; each plate 10 is then closed and transferred to a thermostatic chamber. Subsequently, the position of the mite 11 was monitored every 5 minutes for a total of 30 minutes, to a total of 6 observations. 20 plates were used for every test, with 4 repetitions, to a total of 80 plates. During the tests the temperature and relative humidity were kept respectively around 34° C. and 75%; the inside of the thermostatic chamber was kept dark. The action of the substances tested on the Varroa destructor mite was evaluated by calculating an average value for the treated wells 12a and the control wells 12b, equal to the average number of times in which the Varroa destructor mite was observed inside one or the other in the 6 observations made in the course of the 30 minutes of each test. The average values thus obtained are representative, with a certain approximation, of the time spent by the mite in the two types of well 12a, 12b. The attractiveness of a substance thus determines higher average values for the treated wells 12a with respect to those of the control wells 12b.

In assay [2] the test system is Varroa destructor mite. Nature of the assay: Activity test in the beehive (cells with worker bee larvae near to opercolature). The note with it: 100 ng in 1 μl solvent per cell, 18 hours after treatment. It is filed as in vivo. The method, then: (±)-2-hydroxyhexanoic acid was also tested in the beehive, by applying, in the cells with worker bee larvae near to opercolature, a solution of 100 ng of (±)-2-hydroxyhexanoic acid dissolved in 1 μl of a suitable solvent. The infestation of such cells was compared with that of the control cells treated with the solvent alone: the cells used were examined 18 hours after treatment and the Varroa destructor mites present in the treated cells and in the control cells were counted.

In the case of `CCCCC(O)C(=O)O` (racemic) [(±)-2-hydroxyhexanoic acid], the “AVERAGE ACTIVITY TREATED” value with Varroa destructor mite [1] (1 ng in treated wells) came to 22.3; in the assay on Varroa destructor mite [1] (10 ng in treated wells), 31.8; in the assay on Varroa destructor mite [1] (100 ng in treated wells) it was 34.7; in the assay with Varroa destructor mite [1] (1000 ng in treated wells), 23.0. For the same molecule, the “Activity on / attractiveness to the Varroa destructor mite (infestation of treated wells vs control wells), in words” value in the assay on Varroa destructor mite [1] (dose 10 ng) is “active on and attractive to the Varroa destructor mite”; in the assay on Varroa destructor mite [1] (dose 100 ng), “active on and attractive to the Varroa destructor mite”. Besides, the “Number of Varroa destructor mites per cell in treated cells vs non-treated cells, in words” value in the assay with Varroa destructor mite [2] is “significantly greater”. For the same molecule, the “N. OF VARROA DESTRUCTOR MITE PER CELL TREATED, Average” value in the assay on Varroa destructor mite [2] (average of 5 replications) was 0.60.
With `CCCCCCC(O)C(=O)O` (racemic) [(±)-2-hydroxyoctanoic acid, reference compound], the “AVERAGE ACTIVITY TREATED” value with Varroa destructor mite [1] (100 ng in treated wells) stood at 29.5. Moreover, the “Activity on / attractiveness to the Varroa destructor mite (infestation of treated wells vs control wells), in words” value in the assay with Varroa destructor mite [1] (dose 100 ng) is listed as “not found to be active”.
On to `CCCC(O)CC(=O)O` (racemic) [(±)-3-hydroxyhexanoic acid], for which the figures for the “AVERAGE ACTIVITY TREATED” value in the assay with Varroa destructor mite [1] (10 ng in treated wells), in the assay on Varroa destructor mite [1] (100 ng in treated wells) and in the assay with Varroa destructor mite [1] (1000 ng in treated wells) were 24.5, 36.8 and 23.3, respectively. Further, the “Activity on / attractiveness to the Varroa destructor mite (infestation of treated wells vs control wells), in words” value in the assay with Varroa destructor mite [1] (dose 100 ng) was “active on and attractive to the Varroa destructor mite”.
